Read-outs that look alike come from different tables or passages of the source.
Legend:
[1] = tested on: visceral hypersensitivity; design: species or system adult female Sprague Dawley rats; conditions: rat
normal colon transit = tested on: normal colon transit; design: species or system male Sprague Dawley rats; conditions: rat
[2] = tested on: castor oil induced diarrhoea; design: species or system male NMRI mice; conditions: mouse, sc

SMILES	In vivo agonism hypersensitivity max inhibition % of control ([1]; sc)	In vivo agonism transit Mean retention time % control (normal colon transit; sc)	In vivo agonism diarrhoea mean score % control [2]	In vivo agonism transit Mean retention time % control (normal colon transit; po)	In vivo agonism hypersensitivity max inhibition % of control ([1]; po)
CN(CCCN1CN(c2ccccc2)C2(CCN(CCC3CCC4CC3C4(C)C)CC2)C1=O)CC1(O)CCNCC1 (stereo not shown) [Example 37, 8-[2-(6,6-Dimethyl-bicyclo[3.1.1]hept-2-yl)-ethyl]-3-{3-[(4-hydroxy-piperidin-4-ylmethyl)-methyl-amino]-propyl}-1-phenyl-1,3,8-triaza-spiro[4.5]decan-4-one]	34 (s.c.) % of control				
CNCCCN1CN(c2ccccc2)C2(CCN(CCC3CCC4CC3C4(C)C)CC2)C1=O (stereo not shown) [Example 13, 8-[2-(6,6-Dimethyl-bicyclo[3.1.1]hept-2-yl)-ethyl]-3-(3-methylamino-propyl)-1-phenyl-1,3,8-triaza-spiro[4.5]decan-4-one]		105 (s.c.) % control	59 (s.c.) % control		
CNCCCCN1CN(c2ccccc2)C2(CCN(CCC3CCC4CC3C4(C)C)CC2)C1=O (stereo not shown) [Example 14]		111 (s.c.) % control	64 (s.c.) % control		
CC1(C)C2CCC(CCN3CCC4(CC3)C(=O)NCN4c3ccccc3)C1C2 (stereo not shown) [Example 1, 8-[2-(6,6-Dimethyl-bicyclo[3.1.1]hept-2-yl)-ethyl]-1-phenyl-1,3,8-triaza-spiro[4.5]decan-4-one]	49 (s.c.) % of control				
CN(CCN1CN(c2ccccc2)C2(CCN(CCC3CCC4CC3C4(C)C)CC2)C1=O)C(c1ccco1)C(O)CO (stereo not shown) [Example 51]	45 (s.c.) % of control	102 (s.c.) % control		105 (p.o.) % control	44 (p.o.) % of control

From patent publication US7241770B2 (priority 2003, dated 2007)
